In ChEMBL document CHEMBL1123699, “Selective cytotoxicity of a system L specific amino acid nitrogen mustard” (J Med Chem, 1987):

How the values were obtained:
L1210 [1] = test: Inhibitory activity against leucine-preferring transport system (system L) was determined in murine leukemia L1210 cell lines; format: functional, cell-based, Mus musculus
CFU-C = test: Lethal dose was determined for […] activity against […]; format: toxicity, cell-based; settings: mouse
L1210 [2] = test: Inhibitory activity against murine leukemia cells (L1210) was determined; format: functional, cell-based, Mus musculus
L1210 [3] = test: Lethal dose was determined for […] activity against murine leukemia cells (L1210); format: toxicity, cell-based; settings: mouse
[4] = rat
[5] = Therapeutic index is the ratio of LD90 of CFU-C to LD90 of L1210 cell lines; format: cell-based; settings: mouse, CFU-C and L1210 cells

NC1(C(=O)O)CCc2c(cccc2N(CCCl)CCCl)C1 (stereo not given)
Ki (L1210 [1]): 15.2 µM

NC1(C(=O)O)CCc2ccccc2C1 (stereo not given)
Ki (L1210 [1]): 5 µM

N[C@@H](Cc1ccc(N(CCCl)CCCl)cc1)C(=O)O [MELPHALAN]
LD90 (CFU-C): 14 µM
Ki (L1210 [2]): 112 µM
LD90 (L1210 [3]): 35 µM

NC1(C(=O)O)CCc2ccc(N(CCCl)CCCl)cc2C1 (stereo not given)
LD90 (CFU-C): 26.5 µM
Ki (L1210 [2]): 0.22 µM
half-life [4]: 40 min
selectivity ratio [5]: 0.9
LD90 (L1210 [3]): 23.8 µM
